Reference: patent US6495715B2, “Calcium channel blockers” (Warner-Lambert Company, priority 1997, dated 2002)

Key:
[1] = biological target: T1, N-type Ca2+ channel (Homo sapiens, UniProt Q00975); assay: Measurement of N-type Ca2+ channel blocking potencies in IMR-32 cells using the fluorescent Ca2+ indicator Indo-1; type: cell-based; conditions: K+-stimulated Ca2+ flux, 5 μM nitrendipine to block L-type channels
T1 construct: host or cells: IMR-32 cells, differentiated with dibutyryl cAMP and bromodeoxyuridine
T1 sequence (Q00975 whole entry): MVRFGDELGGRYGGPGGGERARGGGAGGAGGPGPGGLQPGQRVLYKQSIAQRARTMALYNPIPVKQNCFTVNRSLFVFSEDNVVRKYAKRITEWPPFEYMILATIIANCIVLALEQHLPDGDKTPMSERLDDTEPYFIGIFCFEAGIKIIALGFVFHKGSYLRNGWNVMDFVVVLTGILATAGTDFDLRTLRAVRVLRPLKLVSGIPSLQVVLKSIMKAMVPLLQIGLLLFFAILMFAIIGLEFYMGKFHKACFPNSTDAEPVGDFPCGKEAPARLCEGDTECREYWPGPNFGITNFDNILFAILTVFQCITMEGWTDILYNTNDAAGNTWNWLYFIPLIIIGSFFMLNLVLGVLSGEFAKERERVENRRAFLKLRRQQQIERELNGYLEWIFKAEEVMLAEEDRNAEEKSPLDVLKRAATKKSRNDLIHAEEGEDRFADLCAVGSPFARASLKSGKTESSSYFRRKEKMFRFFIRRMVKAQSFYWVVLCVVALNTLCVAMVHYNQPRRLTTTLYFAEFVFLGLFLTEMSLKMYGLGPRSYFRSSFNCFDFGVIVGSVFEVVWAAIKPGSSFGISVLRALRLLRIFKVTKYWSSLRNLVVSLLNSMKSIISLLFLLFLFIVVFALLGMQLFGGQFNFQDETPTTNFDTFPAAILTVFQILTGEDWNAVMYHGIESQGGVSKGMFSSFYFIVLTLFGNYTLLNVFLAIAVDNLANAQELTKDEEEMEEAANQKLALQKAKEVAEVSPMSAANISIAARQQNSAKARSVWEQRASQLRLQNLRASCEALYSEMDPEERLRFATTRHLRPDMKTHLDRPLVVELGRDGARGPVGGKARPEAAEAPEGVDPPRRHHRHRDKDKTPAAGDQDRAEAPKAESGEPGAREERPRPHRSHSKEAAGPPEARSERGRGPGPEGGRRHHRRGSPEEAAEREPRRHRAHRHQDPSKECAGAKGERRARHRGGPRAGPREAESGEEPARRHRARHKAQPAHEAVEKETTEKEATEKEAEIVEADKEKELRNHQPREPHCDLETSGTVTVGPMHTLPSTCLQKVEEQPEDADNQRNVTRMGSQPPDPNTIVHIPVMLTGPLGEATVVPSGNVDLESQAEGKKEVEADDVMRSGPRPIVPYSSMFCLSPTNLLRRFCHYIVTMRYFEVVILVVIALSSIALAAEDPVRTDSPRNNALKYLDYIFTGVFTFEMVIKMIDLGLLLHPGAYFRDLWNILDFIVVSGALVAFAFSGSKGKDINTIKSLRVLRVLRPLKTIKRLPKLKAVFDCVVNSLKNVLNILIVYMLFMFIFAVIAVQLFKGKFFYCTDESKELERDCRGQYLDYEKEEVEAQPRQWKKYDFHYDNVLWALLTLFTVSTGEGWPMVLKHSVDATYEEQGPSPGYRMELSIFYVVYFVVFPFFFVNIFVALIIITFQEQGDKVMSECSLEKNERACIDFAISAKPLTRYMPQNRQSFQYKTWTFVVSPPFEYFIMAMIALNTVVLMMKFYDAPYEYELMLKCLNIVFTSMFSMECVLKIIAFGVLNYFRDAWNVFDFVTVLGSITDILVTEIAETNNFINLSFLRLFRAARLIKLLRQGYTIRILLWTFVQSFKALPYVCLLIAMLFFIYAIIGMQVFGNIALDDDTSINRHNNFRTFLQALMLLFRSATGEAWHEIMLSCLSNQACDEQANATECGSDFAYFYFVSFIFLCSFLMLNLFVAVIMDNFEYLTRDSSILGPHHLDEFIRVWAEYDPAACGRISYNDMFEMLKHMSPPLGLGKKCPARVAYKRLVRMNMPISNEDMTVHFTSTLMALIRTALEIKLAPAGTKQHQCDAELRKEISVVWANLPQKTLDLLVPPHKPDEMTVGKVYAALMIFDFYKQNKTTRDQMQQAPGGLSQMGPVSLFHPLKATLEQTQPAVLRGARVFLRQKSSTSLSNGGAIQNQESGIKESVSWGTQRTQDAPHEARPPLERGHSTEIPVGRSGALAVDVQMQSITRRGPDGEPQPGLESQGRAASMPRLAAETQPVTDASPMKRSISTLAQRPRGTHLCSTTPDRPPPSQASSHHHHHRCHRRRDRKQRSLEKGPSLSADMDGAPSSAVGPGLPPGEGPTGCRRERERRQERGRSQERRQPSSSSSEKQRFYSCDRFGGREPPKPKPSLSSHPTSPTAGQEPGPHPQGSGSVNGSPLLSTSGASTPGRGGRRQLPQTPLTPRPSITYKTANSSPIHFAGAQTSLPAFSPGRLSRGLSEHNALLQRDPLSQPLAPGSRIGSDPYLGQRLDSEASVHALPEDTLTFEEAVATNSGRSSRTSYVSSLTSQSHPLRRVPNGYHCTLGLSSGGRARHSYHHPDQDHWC
T1 sequence (P54289 25-956 partner limits assumed): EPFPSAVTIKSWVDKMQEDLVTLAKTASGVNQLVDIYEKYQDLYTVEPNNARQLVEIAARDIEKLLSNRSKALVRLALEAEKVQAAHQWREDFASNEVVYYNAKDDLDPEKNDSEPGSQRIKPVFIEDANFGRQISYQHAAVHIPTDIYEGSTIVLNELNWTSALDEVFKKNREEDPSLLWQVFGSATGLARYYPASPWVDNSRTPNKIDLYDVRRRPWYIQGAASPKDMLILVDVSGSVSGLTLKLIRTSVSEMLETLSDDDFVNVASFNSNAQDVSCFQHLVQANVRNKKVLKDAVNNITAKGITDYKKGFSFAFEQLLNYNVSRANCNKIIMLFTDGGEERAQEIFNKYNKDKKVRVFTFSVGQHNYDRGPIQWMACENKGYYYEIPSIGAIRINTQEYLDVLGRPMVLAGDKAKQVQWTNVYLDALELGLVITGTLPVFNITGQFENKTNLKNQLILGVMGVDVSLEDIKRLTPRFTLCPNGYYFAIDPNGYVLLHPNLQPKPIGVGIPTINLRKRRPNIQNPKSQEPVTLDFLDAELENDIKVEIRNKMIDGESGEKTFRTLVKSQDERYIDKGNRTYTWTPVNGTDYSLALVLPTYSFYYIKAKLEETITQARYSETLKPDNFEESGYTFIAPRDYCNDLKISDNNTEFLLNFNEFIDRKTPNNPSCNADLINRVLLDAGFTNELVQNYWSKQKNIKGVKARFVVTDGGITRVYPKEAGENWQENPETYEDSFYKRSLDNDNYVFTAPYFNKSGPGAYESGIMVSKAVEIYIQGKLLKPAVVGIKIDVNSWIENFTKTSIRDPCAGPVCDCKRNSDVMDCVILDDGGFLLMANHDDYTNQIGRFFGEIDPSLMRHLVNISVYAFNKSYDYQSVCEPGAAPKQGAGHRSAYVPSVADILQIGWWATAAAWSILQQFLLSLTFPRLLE
T1 sequence (P54289 957-1103 partner limits assumed): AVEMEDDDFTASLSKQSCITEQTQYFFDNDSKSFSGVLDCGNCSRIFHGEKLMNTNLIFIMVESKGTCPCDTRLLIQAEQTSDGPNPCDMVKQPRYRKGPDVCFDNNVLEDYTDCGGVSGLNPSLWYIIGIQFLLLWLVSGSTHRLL
T1 sequence (Q02641 whole entry partner): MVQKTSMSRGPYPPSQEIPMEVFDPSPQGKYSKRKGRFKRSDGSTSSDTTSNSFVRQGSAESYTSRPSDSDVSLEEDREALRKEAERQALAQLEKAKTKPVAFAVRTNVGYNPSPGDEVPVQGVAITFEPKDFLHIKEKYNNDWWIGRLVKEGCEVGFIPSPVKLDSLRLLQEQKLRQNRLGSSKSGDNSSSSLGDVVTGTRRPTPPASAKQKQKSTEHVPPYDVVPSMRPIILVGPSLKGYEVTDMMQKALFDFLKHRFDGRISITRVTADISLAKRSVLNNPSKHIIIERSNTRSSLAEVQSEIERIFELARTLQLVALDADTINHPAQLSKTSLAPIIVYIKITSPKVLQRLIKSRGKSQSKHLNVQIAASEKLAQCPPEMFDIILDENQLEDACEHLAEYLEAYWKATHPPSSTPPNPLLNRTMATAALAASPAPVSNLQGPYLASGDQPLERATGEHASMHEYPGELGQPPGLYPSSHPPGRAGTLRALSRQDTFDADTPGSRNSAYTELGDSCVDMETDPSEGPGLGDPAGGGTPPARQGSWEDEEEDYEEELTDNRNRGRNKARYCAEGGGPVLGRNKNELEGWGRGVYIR

Compound	IC50 [1]	melting point
CC(C)C[C@H](NC(=O)N1CCCCCC1)C(=O)NCCN(Cc1ccccc1)c1ccc(OCc2ccccc2)cc1 [Example 7, (S)-Azepane-1-carboxylic acid (1-{2-[benzyl-(4-benzyloxy-phenyl)-amino]-ethylcarbamoyl}-3-methyl-butyl)-amide]	1900 nM	65 to 66 °C
CC(C)=CCN(CCCNC(=O)[C@H](CC(C)C)NC(=O)N1CCCCCC1)c1ccc(OCc2ccccc2)cc1 [Example 4, (S)-Azepane-1-carboxylic acid (1-{3-[(4-benzyloxy-phenyl)-(3-methyl-but-2-enyl)-amino]-propylcarbamoyl}-3-methyl-butyl)-amide]	750 nM	48 to 52 °C
CC(C)=CCN(CCNC(=O)[C@H](CC(C)C)NC(=O)N1CCCCCC1)c1ccc(OCc2ccccc2)cc1 [Example 3, (S)-Azepane-1-carboxylic acid (1-{2-[(4-benzyloxy-phenyl)-(3-methyl-but-2-enyl)-amino]-ethylcarbamoyl}-3-methyl-butyl)-amide]	690 nM	71 °C
CC(C)C[C@H](NC(=O)N1CCCCCC1)C(=O)NCCN(c1ccc(OCc2ccccc2)cc1)C1C=CCCC1 (stereo partly drawn) [Example 6, (S)-Azepane-1-carboxylic acid (1-{2-[(4-benzyloxy-phenyl)-cyclohex-2-enyl-amino]-ethylcarbamoyl}-3-methyl-butyl)-amide]	840 nM	79 to 80 °C
